Assay results taken from patent US10391137B2, “Platelet-derived growth factor-BB production promotor, and mesenchymal stem cell production accelerator, stem cell stabilizer and dermal regenerator comprising the same” (Shiseido Company, Ltd., priority 2011, dated 2019).

Tested on: PDGF-B gene expression in human vascular endothelial cells HUVEC
Assay: Evaluation of PDGF-BB production-promoting effect in vascular endothelial cells (PDGF-B mRNA, quantitative RT-PCR)
Assay type: cell-based
Details: 10 ppm in medium, cultured 2 days, PDGF-BB mRNA vs. solvent control, G3PDH internal standard
Protocol: Human vascular endothelial cells HUVEC were subcultured with EGM-2 medium (Sanko Junyaku Co., Ltd.), and cells of the 4th subculture were suspended in VEGF-A-free Humedia-EG2 medium (Kurabo Industries, Ltd.) and seeded in a collagen-coated 24-well multiplate (Asahi Glass Co., Ltd.) at a 20,000 cell ratio, and culturing was conducted in the presence of 5% CO2 for 3-5 days until the cells reached confluence at 37° C. After exchange with Humedia-EG2 medium (Kurabo Industries, Ltd.) containing each sample added to the specified concentration or an added solvent dissolving each evaluation sample, culturing was continued for 2 days. The mRNA was extracted and purified from the cultured cells using an RNA extraction reagent MagNA Pure LC mRNA HS kit (Roche) and an automatic nucleic acid extraction apparatus MagNA Pure LC 1.0 Instrument (Roche), according to the manufacturer's protocol. For each sample, an equal volume of mRNA was used as template for one-step quantitative real time (RT)-PCR of the PDGF-B gene using primer pairs of SEQ ID NO: 1 and 2 listed below, the reaction reagent QuantiFast SYBR Green RT-PCR Kit (Qiagen) and a LightCycler reactor (Roche). The composition conditions were according to the protocol by Qiagen. […]

| SMILES | PDGF-BB expression (vs. control) |
| --- | --- |
| O[C@H]1[C@H](O)[C@@H](O)[C@H](O)[C@@H](O)[C@H]1O [Inositol, myo-inositol] | 1.37 |
| O=P(O)(O)O[C@H]1[C@H](OP(=O)(O)O)[C@@H](OP(=O)(O)O)[C@H](OP(=O)(O)O)[C@@H](OP(=O)(O)O)[C@H]1OP(=O)(O)O [Phytic acid, phytic acid] | 1.20 |
